Experimental data reported in publication PMC7363796, “Blood pressure-lowering effects of a Bowman-Birk inhibitor and its derived peptides in normotensive and hypertensive rats” (Scientific Reports, 2020).
Where two headings read alike, the source gives them in different places. Where a SMILES comes first, the peptide text is derived from it. Bridges are numbered along the chain shown (N, C = ends).

Legend:
chymotrypsin [1] = biological target: T1, chymotrypsin (Bos taurus, UniProt P00766); assay: Inhibition of chymotrypsin, residual activity with GPNA substrate; type: biochemical; conditions: pH 7.6, from fitted inhibition curves (GRAFIT), read-out: Inhibition constant Ki against chymotrypsin
Experimental: (§1) The inhibitory activities of BTCI, PepTry and PepChy against trypsin and chymotrypsin activities were assayed using the substrates Na-benzoyl-DL-arginine-p-nitroanilide (BAPNA) and n-glutaryl-L-phenylalanine-p-nitroanilide (GPNA), respectively (Sigma)[19],[39]. Enzymatic assays were performed in 50 mM Tris-HCl, CaCl2 20 mM pH 7.6 for chymotrypsin or pH 8.2 for trypsin. Forty μL of BTCI and PepTry (0 to 20 μM) and BTCI and PepChy (0 to 50 μM) were incubated with 40 μL of trypsin (2.57 µM) or chymotrypsin (28.60 µM), respectively, in a 96-well plate at room temperature for 15 minutes. Then, 200 μL BAPNA (0.064 mg/mL) or GPNA (0.8 mg/mL) were added. The reaction was stopped by addition of 30 μL 30% acetic acid (v/v). Enzymatic hydrolysis of the substrate was evaluated by recording the absorbance at 410 nm. The residual activities of the enzymes, in the presence of inhibitors, were estimated considering the free enzyme activity to be 100%. Inhibition constants of the enzyme-inhibitor complexes, Ki, were calculated from fitted inhibition curves[70] using the GRAFIT program version 3 (Erithacus Software, Horley, Surrey, United Kingdom).

[2] = biological target: T2, angiotensin converting enzyme (ACE) (Oryctolagus cuniculus, UniProt P12822); assay: ACE inhibition assay with HHL substrate (Hayakari method); type: biochemical; conditions: rabbit lung ACE; for inhibition at 100 µM: pH 8.3, read-out: Highest ACE-inhibitory value; for IC50: sodium phosphate pH 8.3, 37 °C, 10 min pre-incubation, 45 min reaction, absorbance 382 nm, non-linear fit, triplicate, read-out: IC50 against ACE
T2 construct: ACE stock solution was obtained from rabbit lung; from tissue; host or cells: rabbit lung
T2 sequence (P12822 34-1310): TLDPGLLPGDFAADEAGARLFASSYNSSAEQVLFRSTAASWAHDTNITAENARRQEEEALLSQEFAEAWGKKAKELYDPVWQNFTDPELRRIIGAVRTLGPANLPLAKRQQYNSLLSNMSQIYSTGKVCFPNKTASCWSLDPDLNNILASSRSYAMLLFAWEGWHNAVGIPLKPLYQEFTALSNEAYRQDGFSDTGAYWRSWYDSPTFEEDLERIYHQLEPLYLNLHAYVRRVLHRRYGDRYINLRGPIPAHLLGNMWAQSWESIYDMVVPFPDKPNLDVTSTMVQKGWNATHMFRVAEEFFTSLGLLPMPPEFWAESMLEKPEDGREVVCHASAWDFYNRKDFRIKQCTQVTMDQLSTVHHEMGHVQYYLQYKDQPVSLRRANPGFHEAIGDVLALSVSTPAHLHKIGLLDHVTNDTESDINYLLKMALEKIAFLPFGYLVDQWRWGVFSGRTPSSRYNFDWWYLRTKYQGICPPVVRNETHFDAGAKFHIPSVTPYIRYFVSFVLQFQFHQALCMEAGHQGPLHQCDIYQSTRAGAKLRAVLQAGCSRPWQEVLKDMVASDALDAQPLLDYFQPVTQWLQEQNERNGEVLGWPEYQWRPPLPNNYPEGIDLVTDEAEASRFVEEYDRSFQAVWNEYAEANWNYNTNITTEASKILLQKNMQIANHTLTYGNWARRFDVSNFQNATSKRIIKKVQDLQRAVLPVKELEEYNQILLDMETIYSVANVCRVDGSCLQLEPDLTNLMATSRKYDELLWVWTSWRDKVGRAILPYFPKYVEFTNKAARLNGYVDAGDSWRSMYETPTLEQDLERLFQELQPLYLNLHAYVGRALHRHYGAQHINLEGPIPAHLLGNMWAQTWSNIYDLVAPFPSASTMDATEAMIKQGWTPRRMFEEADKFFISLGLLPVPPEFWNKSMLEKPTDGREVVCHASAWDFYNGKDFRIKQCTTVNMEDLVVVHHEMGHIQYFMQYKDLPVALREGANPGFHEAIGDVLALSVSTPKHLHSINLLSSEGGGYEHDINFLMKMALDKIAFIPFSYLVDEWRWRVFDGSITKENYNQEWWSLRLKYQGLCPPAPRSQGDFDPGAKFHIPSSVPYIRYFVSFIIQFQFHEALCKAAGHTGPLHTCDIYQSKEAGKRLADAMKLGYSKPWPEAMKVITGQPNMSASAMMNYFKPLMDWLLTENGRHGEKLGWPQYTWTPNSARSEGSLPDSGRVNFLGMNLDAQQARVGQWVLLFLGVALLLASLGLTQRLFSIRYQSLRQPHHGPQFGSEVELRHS
Experimental: Inhibitory activities of peptides PepTry and PepChy and BTCI against ACE were performed according to Hayakari, et al. (1978) using the synthetic substrate hippuryl-L-histidyl-L-leucine (HHL)[71]. Briefly, ACE stock solution was obtained from rabbit lung in 10 mM sodium phosphate buffer, pH 8.3, and BTCI and peptides stock solutions were prepared in MilliQ water (m/v). Concentration of BTCI was estimated from spectrophotometric absorbance at 280 nm based A2801% = 8.23. Concentration of PepTry and PepChy were estimated according to Eq. 1. BTCI and peptides were diluted in 10 mM sodium phosphate buffer pH 8.3 to obtain concentrations ranging from 0 to 600 µM. Ten µL peptide solutions were pre-incubated with 10 µL of ACE containing 0.5 M NaCl at 37 °C for 10 min. […] The enzymatic reaction was terminated by adding a mixture containing 550 µL of 100 mM sodium phosphate pH 8.3 and 332.5 µL of 3% (m/v) 2,4,6-trichloro-s-triazine (TT) (in dioxane). The mixture was incubated for 5 min. at room temperature and then centrifuged at 1000 g for 10 min at 4 °C. The absorbance values of supernatants containing hippuric acid liberated from HHL were recorded at 382 nm using the Jasco Spectrophotometer V-530 (Jasco Analytical Instruments, Tokyo, Japan). IC50 values for peptides and BTCI were calculated from nonlinear regression curve of ACE residual activity (%) versus inhibitor concentration (µM) (BTCI, PepTry and PepChy) using Origin software (OriginLab Corporation, USA). The control was prepared containing only the substrate without enzyme solution. Assays were performed in triplicate.

trypsin [3] = biological target: T3, trypsin (Bos taurus, UniProt P00760); assay: Inhibition of trypsin, residual activity with BAPNA substrate; type: biochemical; conditions: pH 8.2, from fitted inhibition curves (GRAFIT), read-out: Inhibition constant Ki against trypsin
T3 sequence (P00760 24-246): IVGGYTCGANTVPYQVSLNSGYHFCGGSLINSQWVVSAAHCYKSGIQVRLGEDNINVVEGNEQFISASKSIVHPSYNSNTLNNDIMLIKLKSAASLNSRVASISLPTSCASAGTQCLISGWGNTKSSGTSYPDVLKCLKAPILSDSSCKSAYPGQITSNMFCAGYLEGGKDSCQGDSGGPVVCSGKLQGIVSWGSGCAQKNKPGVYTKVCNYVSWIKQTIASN
Experimental: as §1

chymotrypsin [4] = biological target: T1, chymotrypsin; conditions: literature value; read-out: Inhibition constant Ki against chymotrypsin; cited from earlier work
Experimental: (§2) The inhibitory activities of BTCI and its derived peptides, PepTry and PepChy, were evaluated through the residual enzymatic activity of serine proteases trypsin and chymotrypsin in the presence of increasing concentrations of BTCI and its derived peptides (Fig. 2A–D). In the absence of BTCI and peptides, the proteases cleave BAPNA/GPNA substrates releasing the yellow-colored p-nitroanilide product corresponding to an enzymatic activity of 100%[39]. In the presence of BTCI and peptides, a gradual decay of the protease activities is observed. BTCI at approximately 6 µM and 40 µM inhibits trypsi ...

trypsin [5] = biological target: T3, trypsin; conditions: literature value; read-out: Inhibition constant Ki against trypsin; cited from earlier work
Experimental: as §2

| Molecule | Ki (chymotrypsin [1]) | inhibition at 100 µM [2] | IC50 [2] | Ki (trypsin [3]) | Ki (chymotrypsin [4]) | Ki (trypsin [5]) |
| --- | --- | --- | --- | --- | --- | --- |
| CC[C@H](C)[C@@H]1NC(=O)[C@H](CO)NC(=O)[C@H](Cc2ccccc2)NC(=O)[C@H]([C@@H](C)O)NC(=O)[C@@H](N)CSSC[C@@H](C(=O)O)NC(=O)[C@H](CCC(N)=O)NC(=O)[C@H](C)NC(=O)[C@@H]2CCCN2C1=O [PepChy] (H-CTFSIPAQC-OH; disulfide 1-9) | 121 µM | ~98% | 24.7 ± 1.1 µM | – | – | – |
| CC[C@H](C)[C@@H]1NC(=O)[C@H](CO)NC(=O)[C@H](CCCCN)NC(=O)[C@H]([C@@H](C)O)NC(=O)[C@@H](N)CSSC[C@@H](C(=O)O)NC(=O)[C@H](CCC(N)=O)NC(=O)[C@@H]2CCCN2C(=O)[C@@H]2CCCN2C1=O [PepTry] (H-CTKSIPPQC-OH; disulfide 1-9) | – | ~98% | 24.4 ± 1.1 µM | 0.119 µM | – | – |
| BTCI: Bowman-Birk protease inhibitor purified from Vigna unguiculata (Cowpea) seeds; small protein, 9071 Da, seven disulfide bonds | – | – | – | – | 0.115 µM | – |
| BTCI: Bowman-Birk protease inhibitor purified from Vigna unguiculata (Cowpea) seeds; small protein, 9071 Da, seven disulfide bonds (protein, seven intramolecular disulfide bonds; native protein purified from seeds (9071.6 Da)) SGHHEDSTDEASESSKPCCDRCECTKSIPPQCRCSDVRLNSCHSACKSCACTFSIPAQCFCGDINDFCYKPCKSSHSDDDDWN | – | – | 54.6 ± 2.9 µM | – | – | 0.0059 µM |
